Literature values, collected in patent publication US20250009687A1, “COMPOSITIONS AND METHODS USING A COMBINATION OF NUTRIENTS TO SUPPORT COGNITION AND EMOTIONAL HEALTH IN A MAMMAL” (SOCIETE DES PRODUITS NESTLE S.A., priority 2021, published 2025).

Tested on: TFEB
Details: Fu X. et al., Experimental Neurology 2021

## C[C@@H]1O[C@@H](O[C@H]2[C@H](O[C@H]3C[C@]4(C)[C@H](C[C@@H](O)[C@@H]5[C@@H]([C@]6(C)CC[C@H](C(C)(C)O)O6)CC[C@]54C)[C@@]4(C)CC[C@H](O)C(C)(C)[C@H]34)O[C@H](CO)[C@@H](O)[C@@H]2O)[C@H](O)[C@H](O)[C@H]1O [PF11]
  neuroprotection: neuroprotective
Acting through TFEB
  Lamp1 and Ctsd mRNA: increase
